Measured values reported in ChEMBL document CHEMBL1201862, “PubChem BioAssay data set” (2004).
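A five-concentration, 48-hour dose response in 96-well plates underlies each endpoint, interpolated linearly between surrounding concentrations. Here, GI50 denotes the concentration required for 50% inhibition of growth.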 Activity calls are given as the source filed them. Cut-off read from the data, not from the text of the source: active = GI50 up to about 1.1 µM and inactive = higher.

Legend:
Assay in all cases: NCI-60 cell line screen, 48 h
KM12 = test system: KM12
UACC-62 = test system: UACC-62
CAKI-1 = test system: CAKI-1
HCT-15 = test system: HCT-15
RPMI-8226 = test system: RPMI-8226
NCI-H226 = test system: NCI-H226
SK-MEL-2 = test system: SK-MEL-2
SN12C = test system: SN12C
HL-60 = test system: HL-60
K562 = test system: K562
MCF7 = test system: MCF7
PC-3 = test system: PC-3
COLO 205 = test system: COLO 205
SW-620 = test system: SW-620
DU-145 = test system: DU-145
SF-268 = test system: SF-268
MDA-MB-435 = test system: MDA-MB-435
M14 = test system: M14
HCC 2998 = test system: HCC 2998
OVCAR-3 = test system: OVCAR-3

Compound | GI50 (KM12) | GI50 (UACC-62) | GI50 (CAKI-1) | GI50 (HCT-15) | GI50 (RPMI-8226) | GI50 (NCI-H226) | GI50 (SK-MEL-2) | GI50 (SN12C) | GI50 (HL-60) | GI50 (K562) | GI50 (MCF7) | GI50 (PC-3) | GI50 (COLO 205) | GI50 (SW-620) | GI50 (DU-145) | GI50 (SF-268) | GI50 (MDA-MB-435) | GI50 (M14) | GI50 (HCC 2998) | GI50 (OVCAR-3)
COc1cc2oc3ccccc3c(=O)c2cc1CSc1ccccc1N | 4.62 µM (inactive) | 9.71 µM (inactive) | 35.9 µM (inactive) | 6.95 µM | 9.46 µM (inactive) | 73.6 µM (inactive) | 6.95 µM (inactive) | 46.8 µM (inactive) | 3.83 µM (inactive) | 3.91 µM (inactive) | 13.6 µM (inactive) | 14.5 µM (inactive) | 15.8 µM (inactive) | 6.81 µM (inactive) | 21.1 µM (inactive) | 41.1 µM (inactive) | 2.47 µM (inactive) | 23.2 µM (inactive) | 5.24 µM (inactive) | 18.5 µM (inactive)
CC1(C)C(N2CCOCC2)CS1(=O)=O (stereo not given) | > 10 µM (inactive) | > 10 µM (inactive) | > 10 µM (inactive) | > 10 µM | > 10 µM (inactive) | > 10 µM (inactive) | > 10 µM (inactive) | > 10 µM (inactive) | > 10 µM (inactive) | > 10 µM (inactive) | > 10 µM (inactive) | > 10 µM (inactive) | > 10 µM (inactive) | > 10 µM (inactive) | > 10 µM (inactive) | > 10 µM (inactive) | > 10 µM (inactive) | > 10 µM (inactive) | > 10 µM (inactive) | > 10 µM (inactive)
CC1C(OS(=O)(=O)c2ccc3nc(S)sc3c2)CC2C3(C)CCC2(C(C)C(=O)O)C(O)C13 (stereo not given) | 19.9 µM (inactive) | 21.9 µM (inactive) | 22 µM (inactive) | 12.5 µM | 11.5 µM (inactive) | 19.8 µM (inactive) | 29.2 µM (inactive) | 28 µM (inactive) | 23.7 µM (inactive) | 26.2 µM (inactive) | 27.6 µM (inactive) | 27.4 µM (inactive) | 20.7 µM (inactive) |  | 15.7 µM (inactive) | 27.4 µM (inactive) | 17.2 µM (inactive) | 32.4 µM (inactive) | 35.6 µM (inactive) | 14.5 µM (inactive)
CCOC(=O)C(C)c1nc2ccc(C(F)(F)F)cc2[nH]c1=O (stereo not given) | 71.9 µM (inactive) | 39.8 µM (inactive) | > 10 µM (inactive) | 95.3 µM | 28.9 µM (inactive) | 73.6 µM (inactive) | > 100 µM (inactive) | > 100 µM (inactive) | 44.8 µM (inactive) | 48.5 µM (inactive) | 60.8 µM (inactive) | 36.9 µM (inactive) | > 100 µM (inactive) | > 100 µM (inactive) | 69.2 µM (inactive) | 87.1 µM (inactive) | > 100 µM (inactive) | 80 µM (inactive) | 65.2 µM (inactive) | 28 µM (inactive)
CN(Cc1cnc2nc(N)nc(N)c2n1)c1ccc(C(=O)NC(CCC(=O)O)C(=O)O)c2ccccc12 (stereo not given) | 0.00256 µM (active) | 0.00148 µM (active) | 0.00489 µM (active) | 0.00186 µM | 0.00764 µM (active) | < 0.1 µM (active) | < 0.1 µM (active) | 0.00697 µM (active) | 0.000435 µM (active) | 0.000301 µM (active) | 0.00163 µM (active) | 0.000479 µM (active) | 0.0391 µM (active) | 0.00137 µM (active) | 0.00938 µM (active) | 0.00536 µM (active) | 0.00247 µM (active) | 0.00869 µM (active) | 0.00145 µM (active) | 0.0429 µM (active)
O=C(O)c1ccc(Nc2cnc3ccc(C(F)(F)F)cc3n2)cc1 | 16.5 µM (inactive) | 14 µM (inactive) | 14.4 µM (inactive) | 18.7 µM | 18.1 µM (inactive) | 14.2 µM (inactive) | 13.2 µM (inactive) | 25.5 µM (inactive) | 5.4 µM (inactive) | 20.9 µM (inactive) | 33 µM (inactive) | 17.7 µM (inactive) | 17.2 µM (inactive) | 20.9 µM (inactive) | 23.9 µM (inactive) | 31 µM (inactive) | 31.6 µM (inactive) | 38.6 µM (inactive) | 6.61 µM (inactive) | 28.2 µM (inactive)
CCOC(=O)C(=O)C(CCC(=O)c1ccc2ccccc2c1O)C(=O)OCC (stereo not given) | > 100 µM (inactive) | > 100 µM (inactive) | > 100 µM (inactive) | > 100 µM | > 100 µM (inactive) | 38.5 µM (inactive) | > 100 µM (inactive) | > 100 µM (inactive) | > 100 µM (inactive) | > 100 µM (inactive) | > 100 µM (inactive) | > 100 µM (inactive) | > 100 µM (inactive) | > 100 µM (inactive) | > 100 µM (inactive) | > 100 µM (inactive) | > 100 µM (inactive) | > 100 µM (inactive) | > 100 µM (inactive) | > 100 µM (inactive)
CCCCCCc1cc2cc(C(=O)NCc3ccccc3)c(=N)oc2cc1O | > 100 µM (inactive) | > 100 µM (inactive) | > 100 µM (inactive) | > 100 µM | > 100 µM (inactive) | > 100 µM (inactive) | > 100 µM (inactive) | > 100 µM (inactive) | > 100 µM (inactive) | > 100 µM (inactive) | > 100 µM (inactive) | > 100 µM (inactive) | > 100 µM (inactive) | > 100 µM (inactive) | > 100 µM (inactive) | > 100 µM (inactive) | > 100 µM (inactive) | > 100 µM (inactive) | > 100 µM (inactive) | > 100 µM (inactive)
S=CN1CCCCC1 | > 100 µM (inactive) | > 100 µM (inactive) | > 100 µM (inactive) | > 100 µM | > 100 µM (inactive) | > 100 µM (inactive) | > 100 µM (inactive) | > 100 µM (inactive) | > 100 µM (inactive) | > 100 µM (inactive) | > 100 µM (inactive) | > 100 µM (inactive) | > 100 µM (inactive) | > 100 µM (inactive) | > 100 µM (inactive) | > 100 µM (inactive) | > 100 µM (inactive) | > 100 µM (inactive) | > 100 µM (inactive) | > 100 µM (inactive)
N#Cc1c(O)c2ccccc2[nH]c1=O | > 100 µM (inactive) | > 100 µM (inactive) | > 100 µM (inactive) | > 100 µM | > 100 µM (inactive) | > 100 µM (inactive) | > 100 µM (inactive) | > 100 µM (inactive) | > 100 µM (inactive) | > 100 µM (inactive) | > 100 µM (inactive) | > 100 µM (inactive) | > 100 µM (inactive) | > 100 µM (inactive) | > 100 µM (inactive) |  | > 100 µM (inactive) | > 100 µM (inactive) | > 100 µM (inactive) | > 100 µM (inactive)
C/C(=N\NC(=S)NC(C)(C)C)c1nc2cccnc2[nH]1 | 4.8 µM (inactive) | 2.57 µM (inactive) | 3.33 µM (inactive) | 2.47 µM | 6.05 µM (inactive) | 3.4 µM (inactive) | 3.85 µM (inactive) | 7.74 µM (inactive) | 1.2 µM (inactive) | 1.83 µM (inactive) | 0.309 µM (active) | 7.93 µM (inactive) | 2.26 µM (inactive) | 3.47 µM (inactive) | 2.43 µM (inactive) | 6.53 µM (inactive) | 5.37 µM (inactive) | 3.33 µM (inactive) | 3.79 µM (inactive) | 0.384 µM (active)
O=C(O)c1nc2cc(C(F)(F)F)ccc2[nH]c1=O | > 100 µM (inactive) | > 100 µM (inactive) | > 100 µM (inactive) | > 100 µM | > 100 µM (inactive) | > 100 µM (inactive) | > 100 µM (inactive) | > 100 µM (inactive) | > 100 µM (inactive) | > 100 µM (inactive) | > 100 µM (inactive) | > 100 µM (inactive) | > 100 µM (inactive) | > 100 µM (inactive) | > 100 µM (inactive) | > 100 µM (inactive) | > 100 µM (inactive) | > 100 µM (inactive) | > 100 µM (inactive) | > 100 µM (inactive)
CN(C)P(=O)(Oc1ccc(CC(NC(=O)OCc2ccccc2)C(=O)OCc2ccccc2)cc1)N(C)C (stereo not given) | 20 µM (inactive) | 15.2 µM (inactive) | 17.6 µM (inactive) | 17.4 µM | 2.77 µM (inactive) | 26.4 µM (inactive) | 15.6 µM (inactive) | 15.1 µM (inactive) | 13.2 µM (inactive) | 22.7 µM (inactive) | 12.4 µM (inactive) | 15.2 µM (inactive) | 20.9 µM (inactive) | 18.2 µM (inactive) | 15.7 µM (inactive) | 13.4 µM (inactive) | 12.2 µM (inactive) | 13.4 µM (inactive) | 18.3 µM (inactive) | 3.43 µM (inactive)
Nc1nc(Cl)cc(NCC2(CO)CCC2)n1 | > 100 µM (inactive) | 99.3 µM (inactive) | > 100 µM (inactive) | > 100 µM | > 100 µM (inactive) | > 100 µM (inactive) | > 100 µM (inactive) | > 100 µM (inactive) | > 100 µM (inactive) | > 100 µM (inactive) | > 100 µM (inactive) | > 100 µM (inactive) | > 100 µM (inactive) | > 100 µM (inactive) | > 100 µM (inactive) | > 100 µM (inactive) | > 100 µM (inactive) |  | > 100 µM (inactive) | > 100 µM (inactive)
Cc1ccc(/N=N/C(=O)NNc2ccc(C)c([N+](=O)[O-])c2)cc1[N+](=O)[O-] |  | 13.9 µM (inactive) | 18.8 µM (inactive) | 30.1 µM | 19.9 µM (inactive) | 51.9 µM (inactive) | 14.2 µM (inactive) | 31.4 µM (inactive) | 17.9 µM (inactive) | 11.9 µM (inactive) | 23.2 µM (inactive) | 18.7 µM (inactive) |  | 41 µM (inactive) | 25.1 µM (inactive) | 28.6 µM (inactive) | 36.5 µM (inactive) | 40 µM (inactive) | 17.4 µM (inactive) | 28.1 µM (inactive)
